From paper PMC7955031, “Facile accelerated specific therapeutic (FAST) platform develops antisense therapies to counter multidrug-resistant bacteria” (Communications Biology, 2021)

Assays:
CRE E. coli = format: cell-based, Escherichia coli; conditions: concentration range at which 90% of growth inhibition occurs at 24 hours, Table S2
Method: (§1) The clinical isolates were obtained from the lab of Nancy Madinger at the University of Colorado Anschutz campus. Clinical isolates were grown in Cation Adjusted Mueller–Hinton broth (CAMHB) (Becton, Dickinson and Company 212322) at 37 °C with 225 rpm shaking or on solid CAMHB with 1.5% agar at 37 °C. Clinical isolates were maintained as freezer stocks in […], 40% glycerol at −80 °C. Freezer stocks were streaked out onto solid CAMHB and incubated for 16 h to produce single colonies prior to experiments. For each biological replicate, a single colony was picked from solid media and grown for 16 h in liquid CAMHB prior to experiments. Non-clinical isolates, such as E. coli MG1655 (ATCC700926) and Salmonella enterica serovar Typhimurium SL1344, expressing GFP from the chromosome (rpsm::gfp)[54], were cultured in liquid 2% lysogeny broth (LB) or on 2% LB with 1.5% agar for solid plates. SL1344 cultures were supplemented with 30 µg/mL streptomycin and SL1344 strains containing plasmids pFPV (target STm) or pRG1 modified with a lacIq promotor (SL1344-holin) were supplemented with 100 µg/mL ampicillin. Freezer stocks were stored in 60% LB broth, 40% glycerol at −80 °C. Freezer stocks were streaked out onto solid LB and incubated for 16 h to produce single colonies before experiments. […]

MDR E. coli = format: cell-based, Escherichia coli; conditions: concentration range at which 90% of growth inhibition occurs at 24 hours, Table S2
Method: as §1

ESBL KPN = assay: Antibiotic resistance screening (MIC); format: cell-based, Klebsiella pneumoniae; conditions: for Antibiotic resistance characterization (R/S/I): 24 h
Method: The clinical isolates were obtained from the lab of Nancy Madinger at the University of Colorado Anschutz campus. Clinical isolates were grown in Cation Adjusted Mueller–Hinton broth (CAMHB) (Becton, Dickinson and Company 212322) at 37 °C with 225 rpm shaking or on solid CAMHB with 1.5% agar at 37 °C. Clinical isolates were maintained as freezer stocks in […], 40% glycerol at −80 °C. Freezer stocks were streaked out onto solid CAMHB and incubated for 16 h to produce single colonies prior to experiments. For each biological replicate, a single colony was picked from solid media and grown for 16 h in liquid CAMHB prior to experiments. Non-clinical isolates, such as E. coli MG1655 (ATCC700926) and Salmonella enterica serovar Typhimurium SL1344, expressing GFP from the chromosome (rpsm::gfp)[54], were cultured in liquid 2% lysogeny broth (LB) or on 2% LB with 1.5% agar for solid plates. SL1344 cultures were supplemented with 30 µg/mL streptomycin and SL1344 strains containing plasmids pFPV (target STm) or pRG1 modified with a lacIq promotor (SL1344-holin) were supplemented with 100 µg/mL ampicillin. Freezer stocks were stored in 60% LB broth, 40% glycerol at −80 °C. Freezer stocks were streaked out onto solid LB and incubated for 16 h to produce single colonies before experiments. For biological replicates, single colonies were started in liquid LB and grown for 16 h prior to experiments. E. coli MG1655 PNA growth experiments were carried out in M9 media (1x M9 minimal media salts solution (MP Biomedicals), 2.0 mM MgSO4, and 0.1 mM CaCl2 in sterile water) with 0.4% glucose.
Sensitive/resistant breakpoints were taken from the 2016–2017 Clinical & Laboratory Standards Institute report[41] (Table S1). Liquid cultures of the clinical strains were diluted to a 0.5 McFarland standard and added to the respective antibiotic test condition. […] Strains were “sensitive” if the MIC was equal to or below the sensitive-breakpoint concentration, “resistant” if the MIC was greater than or equal to the resistant-breakpoint concentration, and “intermediate” if the MIC was in-between.

MDR STm = format: cell-based, Salmonella enterica serovar Typhimurium; conditions: concentration range at which 90% of growth inhibition occurs at 24 hours, Table S2
Method: as §1

NDM-1 KPN = format: cell-based, Klebsiella pneumoniae; conditions: concentration range at which 90% of growth inhibition occurs at 24 hours, Table S2
Method: as §1

`NC[C@H]1O[C@H](O[C@H]2[C@H](O)[C@@H](O[C@H]3O[C@H](CO)[C@@H](O)[C@H](N)[C@H]3O)[C@H](N)C[C@@H]2N)[C@H](O)[C@@H](O)[C@@H]1O` [KAN, kanamycin] was tested. Which “Antibiotic MIC90” value (CRE E. coli) did it give?
The value was > 64 mg/L.

What about the “Antibiotic MIC90” value (MDR E. coli) of the same compound?
Its value is < 16 mg/L.

And the “Antibiotic MIC90” value (ESBL KPN; ESBL KPN, concentration range at which 90% of growth inhibition occurs at 24 hours, Table S2)?
Its value is > 64 mg/L.

And the “Antibiotic MIC90” value (MDR STm)?
Its value is < 16 mg/L.

And the “Antibiotic MIC90” value (NDM-1 KPN)?
The value was > 64 mg/L.

Which “Antibiotic resistance characterization (R/S/I)” value (ESBL KPN) does the source give for `O=C(N[C@H](CO)[C@H](O)c1ccc([N+](=O)[O-])cc1)C(Cl)Cl` [CHL, chloramphenicol] here?
Its value is “S”.

For `CC1(C)S[C@@H]2[C@H](NC(=O)[C@H](N)c3ccccc3)C(=O)N2[C@H]1C(=O)O` [AMP, ampicillin], which “Antibiotic resistance characterization (R/S/I)” value (ESBL KPN) is on record?
The value was “R”.

How did the “Antibiotic resistance characterization (R/S/I)” value (ESBL KPN) turn out when `CCn1cc(C(=O)O)c(=O)c2ccc(C)nc21` [NXA, nalidixic acid] was run?
Its value is “R”.
